Results from PMC4413647, “Simultaneous targeting of androgen receptor (AR) and MAPK-interacting kinases (MNKs) by novel retinamides inhibits growth of human prostate cancer cell lines” (Oncotarget, 2014).

Experiments:
PWR-1E cells = experiment: MTT cell proliferation assay, 7 d, PWR-1E; format: cell-based; conditions: Homo sapiens, 168 h, immortalized untransformed prostate cells, 7 d treatment
Description: (§1) Androgen-dependent (LNCaP), androgen-independent (PC-3) and castration resistant (C4-2B and 22Rv1) human prostate carcinoma cells were procured from American Type Culture Collection, Manassas, VA, USA and maintained in RPMI 1640 media (Gibco-Life Technologies, Grand Island, NY, USA) supplemented with 10% fetal bovine serum and 1% penicillin/streptomycin. […] Immortalized untransformed prostate epithelial cells, PWR1E from American Type Culture Collection were maintained in serum-free Keratinocyte media (Gibco) supplemented with epidermal growth factor and bovine pituitary extract. All cell lines were maintained in a 37 °C/5% CO2 humidified atmosphere.
(§2) Cell proliferation assay was performed as described previously. For cell growth experiment, cells were treated with the NRs for 7 days. MTT assay was performed at the end of the experiment. Calculations of combination indices were done using the Calcusyn program (Biosoft, Cambridge, United Kingdom). For colony formation assay, cells were plated 1000 per well in complete media and allowed to adhere for 24 h. The next day cells were treated with indicated compounds (5 μM). After 24 h compound containing media were removed, and cells were allowed to form colonies in complete media. Approximately 2 weeks later the colonies were fixed, stained with 0.5% crystal violet (sigma) for 30 min and counted manually. Results represent the mean ± standard deviation of three independent experiments.

PC-3 cells = experiment: MTT cell proliferation assay, 7 d, PC-3; format: cell-based; conditions: Homo sapiens, PC-3, 168 h, 7 d treatment
Description: as §1, §2

22Rv1 cells = experiment: MTT cell proliferation assay, 7 d, 22Rv1; format: cell-based; conditions: Homo sapiens, 22Rv1, 168 h, 7 d treatment
Description: as §1, §2

PCa cells = experiment: MTT cell viability in PCa cells (LNCaP, PC-3, C4-2B, 22Rv1); format: cell-based, human; conditions: Homo sapiens, range over PCa cell lines
Protocol: as §2

LNCaP cells = experiment: MTT cell viability of LNCaP cells with AR/MNK1 siRNA and VNLG-152; format: cell-based, human; conditions: untransfected cells, 5 μM, 72 h
Description: To confirm whether the observed anti-cancer effects of VNLG-152 on PCa cells was primarily due to its inhibitory effects on AR and MNK, we investigated the impact of AR and/or MNK siRNA on the survival of LNCaP cells by MTT assay. […] Co-transfection of LNCaP cells with both AR and MNK1 siRNA (compare lanes 1 and 4) further augmented loss of viability in LNCaP cells.
Figure 6 Effect of siAR, siMNK1 on LNCaP cell viability, and VNLG-152 on key and downstream proteins in LNCaP cells (A) Western blot analysis of the expression of fAR, MNK1 and peIF4E in LNCaP cells transfected with 100 nM of siAR, siMNK1 and combinations for 18 h. (B) Effect of VNLG-152 (5 μmol) on cell proliferation in LNCaP cells transfected with siAR, siMNK1 and combinations as determined by MTT assay. The results represent the mean ± SEM of three independent experiments and are represented as a bar graph after normalizing to control cells. *, P< 0.05; ♣, P<0.01 compared with vehicle treated control. (C) Dose-dependent effect of VNLG-152 on the expression of AR, MNKs, peIF4E and downstream target proteins. Total cell lysate from LNCaP cells treated with VNLG-152 (0 - 20 μmol/L) for 24 h were separated by SDS-PAGE and probed with corresponding antibodies. Vehicle treated cells were included as control and all blots were reprobed for β-actin to ensure equal protein loading. […]

Bax, cleaved PARP-1 = experiment: Western blot of Bax and cleaved PARP-1 in PCa cells; format: cell-based, human; conditions: 20 μM, 24 h, among the lead NRs
Protocol: Figure 4 Effect of NRs on cell cycle and apoptosis (A) LNCaP cells treated with 5 μM of NRs and other compounds for 24 h were stained with PI and analysed with a FACS calibur flow cytometer. (B) Total cell lysates from PCa cells treated with 20 μM of NRs were separated by SDS-PAGE and probed with cyclin D1 and B antibodies. […] (C) LNCaP cells were treated with indicated compounds (5 μmol/L) for 24 h and apoptosis induction was examined by oligonucleosomal fragmentation. Data are shown relative to vehicle treated control and the bars are means of three replicate determinations plus standard deviations. *, P< 0.01; ♣, P<0.05 compared with vehicle treated control. (D) PCa cells as indicated were seeded in 24 well plate, and treated with 5 μmol/L of NRs the subsequent day. After 24 h the plates were analyzed for apoptotic and viable cells using acridine orange/ethidium bromide staining. (E) Western blot analysis of apoptosis associated Bax and cPARP in PCa cells treated with NRs (20 μmol/L) for 24 h. (F) Apoptosis induction in LNCaP cells treated with 5 μmol/L of VNLG-147 and -152 in the presence or absence of ZVAD (5 μmol/L) was assessed by oligonucleosomal fragmentation after 24 h incubation. *, P< 0.05 compared with vehicle treated control. […]

GI50 (PC-3 cells): 5.62 µM | GI50 (22Rv1 cells): 3.23 µM | GI50 (PCa cells): 1.5 to 5.5 µM
SMILES: CC1=C(/C=C/C(C)=C/C=C/C(C)=C/C(=O)Nc2ccc(F)cc2)C(C)(C)CCC1n1ccnc1 (racemic) [VNLG-152]
GI50 (PWR-1E cells): 47.9 µM | LNCaP cell viability (LNCaP cells): robust reduction | efficacy in inducing PARP cleavage and/or increasing Bax expression (Bax, cleaved PARP-1): greater efficacies
